Experimental data as given in patent publication US12533341B2, “Small molecule inhibitors of voltage-gated sodium channel 1.7 and methods of using same” (Duke University, priority 2019, dated 2026).
Entries after “also recorded” stand apart in the source; their conditions may differ.

Columns and labels:
human Nav1.7 = human Nav1.7 (Homo sapiens, UniProt Q15858); test: Whole-cell patch-clamp of sodium currents in Nav1.7-expressing HEK293 cells; assay type: cell-based
Protocol: (§1) HEK-hNav1.7 stable cell line was purchased from SB Drug Discovery (Glasgow, United Kingdom). Human embryonic kidney 293 (HEK293) cells were obtained from the ATCC and maintained at the Duke cell culture facility. Cells were cultured in high-glucose (4.5 g/L) DMEM containing 10% (v/v) FBS (Gibco) and streptomycin/penicillin. For Nav1.7-expressing HEK293 cells, an additional antibiotic, blasticidin, was included. hNav1.5 transfection was performed by Lipofectamine 2000 at 70% confluence using 2 μg cDNA. The transfected cells were cultured in the same growth medium for 48 h before biochemical or electrophysiological studies.
(§2) Whole-cell patch-clamp recordings were conducted at room temperature. Patch pipettes pulled from borosilicate capillaries (World Precision Instruments, Inc., Sarasota, FL) were used to record transient Na currents with an Axopatch-200B amplifier with a Digidata 1440A (Axon Instruments, Sunnyvale CA). The resistance was set to 3-4 MΩ when filled with pipette solution. The pipette solution contained (in mmol/L): CsCl 130, NaCl 9, MgCl2 1, EGTA 10, HEPES 10, adjusted to pH 7.3 with CsOH. The external solution for recording transient Na^+ currents contained (in mmol/L): NaCl 131, TEACl 10, CsCl 10, CaCl2) 1, MgCl2 2, CdCl2 0.3, 4-aminopyridine 3, HEPES 10, glucose 10, adjusted to pH 7.4 with NaOH. The recording chamber (300 μL) was continuously superfused at 3-4 mL/min. Series resistance was compensated (>80%) and leak subtraction was performed. Data were low-pass-filtered at 2 kHz and sampled at 10 kHz. pClamp10 (Axon Instruments) software was used during experiments and analysis. In voltage-clamp experiments, transient Na+ currents were evoked by a test pulse to 0 mV from the holding potential (−70 mV).
The effects of the 9 selected compounds on Nav1.7 channel activities were tested using patch-clamp recordings on human Nav1.7 expressing HEK293 cells (FIG. 3, FIG. 4). In each cell, sodium currents were recorded for 13 min, and candidate inhibitors (10 μM) were incubated for 2 min after 2 min baseline recording (FIG. 3). Compound was applied at the beginning of the second minute for two minutes (denoted as a horizontal line above the X-axis). Sodium currents were recorded at equal intervals (every 20 seconds, 40 recordings per compound per cell). Data was analyzed with a two-way repeated measures ANOVA, followed by a post-hoc test of the last timepoint Bonferroni-corrected for 9 pairwise comparisons (each compound was compared with control). […] Sample size n=3 to 7 cells per group.
For FIG. 4C, sample size was n=5 to 7 cells per group. Compound was applied at the beginning of the second minute for two minutes (denoted as a horizontal line above the X-axis). Sodium currents were recorded every 20 seconds.

hNav1.5 = molecular target: T1, hNav1.5 (Homo sapiens, UniProt Q14524); test: Whole-cell patch-clamp of sodium currents in Nav1.5-transfected HEK293 cells; assay type: cell-based; settings: FIG. 4D, E
T1 construct: expressed in transfected cells; host or cells: HEK293 (ATCC), transient transfection with Lipofectamine 2000
T1 sequence (Q14524 whole entry): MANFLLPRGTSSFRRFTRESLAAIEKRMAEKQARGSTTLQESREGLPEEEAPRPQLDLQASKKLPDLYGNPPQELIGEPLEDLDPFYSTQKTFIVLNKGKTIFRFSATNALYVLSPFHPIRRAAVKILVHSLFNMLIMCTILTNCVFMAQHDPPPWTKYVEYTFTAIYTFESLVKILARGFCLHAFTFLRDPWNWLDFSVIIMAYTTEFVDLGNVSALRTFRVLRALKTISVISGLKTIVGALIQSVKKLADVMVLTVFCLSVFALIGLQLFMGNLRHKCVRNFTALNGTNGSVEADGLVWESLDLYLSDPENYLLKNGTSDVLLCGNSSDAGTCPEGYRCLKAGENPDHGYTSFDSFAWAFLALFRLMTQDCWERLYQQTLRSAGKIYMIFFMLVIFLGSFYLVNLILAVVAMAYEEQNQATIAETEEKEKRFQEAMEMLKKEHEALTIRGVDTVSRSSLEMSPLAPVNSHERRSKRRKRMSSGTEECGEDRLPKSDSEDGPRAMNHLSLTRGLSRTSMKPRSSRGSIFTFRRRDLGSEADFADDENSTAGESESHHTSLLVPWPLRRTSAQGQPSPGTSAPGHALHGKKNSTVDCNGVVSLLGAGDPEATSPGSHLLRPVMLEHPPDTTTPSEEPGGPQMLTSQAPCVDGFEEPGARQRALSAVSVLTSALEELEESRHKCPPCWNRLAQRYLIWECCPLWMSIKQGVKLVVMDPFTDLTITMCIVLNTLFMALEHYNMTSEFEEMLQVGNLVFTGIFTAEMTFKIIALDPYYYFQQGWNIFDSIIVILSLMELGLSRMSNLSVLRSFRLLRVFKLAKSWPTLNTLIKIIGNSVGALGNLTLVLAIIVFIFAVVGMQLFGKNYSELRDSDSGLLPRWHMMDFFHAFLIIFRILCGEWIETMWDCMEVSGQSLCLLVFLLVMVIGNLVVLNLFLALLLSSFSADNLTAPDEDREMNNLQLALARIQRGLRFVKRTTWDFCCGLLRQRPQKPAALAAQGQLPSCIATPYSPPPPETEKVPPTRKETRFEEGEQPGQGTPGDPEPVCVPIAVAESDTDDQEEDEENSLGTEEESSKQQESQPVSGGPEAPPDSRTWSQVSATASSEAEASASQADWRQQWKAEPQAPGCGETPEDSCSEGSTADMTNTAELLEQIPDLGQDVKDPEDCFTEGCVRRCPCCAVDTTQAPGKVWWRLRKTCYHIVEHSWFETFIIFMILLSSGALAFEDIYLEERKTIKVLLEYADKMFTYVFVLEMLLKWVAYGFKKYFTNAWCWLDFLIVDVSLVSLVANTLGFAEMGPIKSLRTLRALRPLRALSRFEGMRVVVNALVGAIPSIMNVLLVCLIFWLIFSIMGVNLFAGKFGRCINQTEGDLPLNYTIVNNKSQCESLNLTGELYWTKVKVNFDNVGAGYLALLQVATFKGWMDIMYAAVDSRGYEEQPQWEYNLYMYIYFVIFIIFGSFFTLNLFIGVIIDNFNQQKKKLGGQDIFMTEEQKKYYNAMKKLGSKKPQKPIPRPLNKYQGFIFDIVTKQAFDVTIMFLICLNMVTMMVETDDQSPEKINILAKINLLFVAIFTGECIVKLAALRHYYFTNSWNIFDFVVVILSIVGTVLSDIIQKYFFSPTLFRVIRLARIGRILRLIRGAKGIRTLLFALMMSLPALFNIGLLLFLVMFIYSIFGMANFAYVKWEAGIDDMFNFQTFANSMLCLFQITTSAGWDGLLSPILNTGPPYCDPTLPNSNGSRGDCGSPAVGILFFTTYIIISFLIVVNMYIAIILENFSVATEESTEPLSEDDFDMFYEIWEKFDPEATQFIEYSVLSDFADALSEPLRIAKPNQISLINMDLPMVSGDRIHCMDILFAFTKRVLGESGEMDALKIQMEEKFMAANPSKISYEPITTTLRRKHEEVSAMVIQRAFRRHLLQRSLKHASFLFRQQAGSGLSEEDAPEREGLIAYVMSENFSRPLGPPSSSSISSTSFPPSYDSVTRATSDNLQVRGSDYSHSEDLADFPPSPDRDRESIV
Protocol: as §1
as §2, with “Series resistance was compensated (>80%) and leak subtraction was performed. Data were low-pass-filtered at 2 kHz and sampled at 10 kHz. pClamp10 (Axon Instruments) software was used during experiments and analysis. In voltage-clamp experiments, transient Na+ currents were evoked by a test pulse to 0 mV from the holding potential (−70 mV).” left out

[1] = tested on: formalin-induced inflammatory pain; test: Formalin-induced nociceptive behavioral test; assay type: in vivo, mouse; settings: mice
Protocol: The formalin test was conducted following our previously published protocol (Chen, Ji, et al. 2018; Neurosci Bull; 34: 98-108). The animals were acclimatized in a transparent acrylic observation chamber for 2 days before test. Vehicle or active compound were administered intrathecally, intraperitoneally, or intraplantarly, 30 min later followed by an intraplantar injection of 20 μL of 5% formalin. After the formalin injection, mice were immediately placed back in the observation chamber, and videoed for 40 min. The videos were analyzed after experiments in a double blinded way. We assessed formalin-evoked spontaneous pain by measuring the time (in seconds) mice spent on licking or flinching the affected paw every 5 min for […]. Phase I and Phase II were defined as periods of 0-10 min and 10-40 min, respectively.
For intrathecal injection, spinal cord puncture was made by a Hamilton microsyringe (Hamilton Company, Reno, Nevada) with a 30-G needle between the L5 and L6 level to deliver reagents (5 μL) to the cerebral spinal fluid. For intraperitoneal injection, Vehicle or drug was injected into peritoneal with a 30-G needle. For intraplantar injection, 20 μL vehicle or drug was injected into the surface of the hind paw.

[2] = tested on: histamine-induced acute itch; test: Histamine-induced itch model; assay type: in vivo, mouse; settings: listed as DA-0218
Protocol: Itch behavior was tested blindly. Mice were habituated to the testing environment daily for at least two days before testing. Animals were shaved at the back of the neck in an area of approximately 15×10 mm on the day before the injection of pruritic agent. Animals were put in small plastic chambers (14×18×12 cm) on an elevated metal mesh floor and allowed 30 min for habituation before examination. Mice were then briefly removed from the chamber and given an intradermal injection (50 μL) of 500 μg of histamine in the nape of the neck. After the injection, mouse behaviors were video-recorded and the number of scratches in every 5 min for 30 min was counted. A scratch was counted when a mouse lifted its hindpaw to scratch the shaved region and returned the paw to the floor or to the mouth.

[3] = tested on: lymphoma-induced chronic itch; test: Mouse CTCL xenograft model of chronic itch; assay type: in vivo
Protocol: We used a murine xenograft model of cutaneous T cell lymphoma (CTCL) using immune-deficient mice (NOD.CB17-Prkdcscid, 8-10 weeks old, male). CD4+ MyLa cell line was purchased from Sigma (Catalog #95051032). The cell line was established from a plaque biopsy of a person with mycosis fungoides stage II by inclusion of IL-2 and IL-4 in the culture medium. CTCL was generated via intradermal injection of CD4+ Myla cells (1×10^5 cells/μL, 100 μL) on the nape of the neck. Itch behavior was tested on Day 50 after inoculation of CTCL cells.

Chain of human Nav1.7 (Q15858 whole entry): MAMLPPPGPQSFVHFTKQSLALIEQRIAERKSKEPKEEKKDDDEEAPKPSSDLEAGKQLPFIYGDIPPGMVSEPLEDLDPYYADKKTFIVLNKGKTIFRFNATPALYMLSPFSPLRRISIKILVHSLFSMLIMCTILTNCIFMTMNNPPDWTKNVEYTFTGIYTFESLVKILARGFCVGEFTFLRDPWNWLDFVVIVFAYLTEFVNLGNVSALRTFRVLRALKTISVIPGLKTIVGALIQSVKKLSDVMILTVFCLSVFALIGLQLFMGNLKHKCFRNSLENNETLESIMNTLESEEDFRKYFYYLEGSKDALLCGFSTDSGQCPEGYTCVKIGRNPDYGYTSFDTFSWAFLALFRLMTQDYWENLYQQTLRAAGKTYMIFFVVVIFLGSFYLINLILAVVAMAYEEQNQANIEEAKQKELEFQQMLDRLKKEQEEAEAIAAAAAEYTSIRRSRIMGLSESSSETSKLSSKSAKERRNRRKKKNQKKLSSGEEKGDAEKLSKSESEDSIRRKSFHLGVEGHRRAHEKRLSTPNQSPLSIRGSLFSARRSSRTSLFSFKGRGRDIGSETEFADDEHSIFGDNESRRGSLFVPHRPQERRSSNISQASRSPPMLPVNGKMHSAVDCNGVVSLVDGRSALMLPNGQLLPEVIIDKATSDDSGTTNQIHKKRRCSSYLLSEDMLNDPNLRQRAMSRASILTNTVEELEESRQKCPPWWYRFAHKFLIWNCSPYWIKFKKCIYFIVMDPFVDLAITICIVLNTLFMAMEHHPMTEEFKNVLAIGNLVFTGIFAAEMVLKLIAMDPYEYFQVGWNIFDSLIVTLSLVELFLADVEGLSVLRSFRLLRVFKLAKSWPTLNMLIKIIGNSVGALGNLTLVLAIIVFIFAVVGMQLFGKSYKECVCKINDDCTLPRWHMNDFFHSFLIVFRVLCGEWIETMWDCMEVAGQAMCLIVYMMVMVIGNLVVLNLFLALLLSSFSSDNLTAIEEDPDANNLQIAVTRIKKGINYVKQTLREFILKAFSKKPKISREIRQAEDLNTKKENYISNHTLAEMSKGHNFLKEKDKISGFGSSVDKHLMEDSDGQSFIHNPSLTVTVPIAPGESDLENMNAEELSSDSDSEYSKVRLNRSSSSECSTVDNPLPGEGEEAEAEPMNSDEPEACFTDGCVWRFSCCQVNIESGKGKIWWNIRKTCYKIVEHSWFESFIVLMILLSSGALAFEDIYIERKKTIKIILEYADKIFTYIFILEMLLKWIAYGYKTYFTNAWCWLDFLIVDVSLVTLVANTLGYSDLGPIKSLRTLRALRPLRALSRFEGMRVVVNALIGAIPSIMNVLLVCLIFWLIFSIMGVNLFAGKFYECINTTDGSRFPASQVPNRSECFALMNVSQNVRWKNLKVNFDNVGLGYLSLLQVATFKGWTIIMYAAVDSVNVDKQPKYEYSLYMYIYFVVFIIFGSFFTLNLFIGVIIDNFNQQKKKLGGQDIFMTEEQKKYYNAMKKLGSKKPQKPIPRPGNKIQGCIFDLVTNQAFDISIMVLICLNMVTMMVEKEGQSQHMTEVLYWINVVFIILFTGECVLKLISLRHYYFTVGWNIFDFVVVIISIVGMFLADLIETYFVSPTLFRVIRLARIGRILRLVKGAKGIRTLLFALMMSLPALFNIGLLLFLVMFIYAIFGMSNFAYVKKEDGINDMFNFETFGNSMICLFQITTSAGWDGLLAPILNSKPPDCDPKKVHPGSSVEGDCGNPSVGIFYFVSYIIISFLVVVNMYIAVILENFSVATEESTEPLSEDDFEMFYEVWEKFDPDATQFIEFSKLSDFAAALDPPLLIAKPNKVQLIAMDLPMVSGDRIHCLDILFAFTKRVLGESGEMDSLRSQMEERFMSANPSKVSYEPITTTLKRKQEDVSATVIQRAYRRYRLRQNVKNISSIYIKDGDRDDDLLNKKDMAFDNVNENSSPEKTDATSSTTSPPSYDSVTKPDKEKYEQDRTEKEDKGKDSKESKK

difference in relative current from the control group at the last measurement (human Nav1.7; 0.01 μM, dose-response (FIG. 4), not significant): 0.13
difference in relative current from the control group at the last measurement (human Nav1.7; 0.1 μM, dose-response (FIG. 4)): 0.27
inhibition of sodium currents vs. control (human Nav1.7; 1 μM): 47%
difference in relative current from the control group at the last measurement (human Nav1.7; 1 μM, dose-response (FIG. 4)): 0.47
difference in relative current from the control group at the last measurement (human Nav1.7; 10 μM, dose-response (FIG. 4)): 0.76
difference in relative current from the control group at the last measurement (human Nav1.7; 10 μM, screen of compounds 1-9 (FIG. 3)): 0.71
IC50 (human Nav1.7; Nav1.7-expressing HEK293 cells, dose-response, read-out: 50% inhibition concentration (IC50)): 740 nM
Structure (SMILES): O=C(CC(c1cccc(Oc2ccccc2)c1)c1cn(Cc2ccccc2)c2ccccc12)NCCN1CCCC1 (centres unmarked) [Compound 9, 3-(1-benzyl-1H-indol-3-yl)-3-(3-phenoxyphenyl)-N-(2-(pyrrolidin-1-yl)ethyl)propanamide]
effect on sodium currents in Nav1.5-expressing HEK293 cells (hNav1.5): no effects
effect on sodium currents in Nav1.5-expressing HEK293 cells (hNav1.5; listed as DA-0218): no effect
inhibition of formalin-induced pain in Phase II ([1]; intraperitoneal 30 mg/kg): 76%
inhibition of formalin-induced pain in Phase II ([1]; intraplantar 60 nmol): significant inhibition
effect on formalin Phase I response ([1]; intrathecal 30 nmol): reduced Phase I response
inhibition of formalin-induced second-phase (Phase II) pain ([1]; intrathecal (3, 10 and 30 nmol)): 80%
effect on histamine-induced scratches ([2]; intrathecal 30 nmol, 500 μg histamine intradermal, 30 min): statistically significant reduction; also recorded: effective against histamine-induced itch
effect on histamine-induced scratch bouts ([2]; intrathecal, dose response): inhibited histamine-induced acute itch; also recorded: dose-dependent reduction
effect duration, chronic itch ([3]; intrathecal): > 5 h
effect on lymphoma-induced chronic itch (scratch) ([3]; intrathecal 30 nmol, Day 50 after CTCL inoculation, listed as DA-0218): inhibited; also recorded: significant reduction of scratch; also recorded: effective against lymphoma-induced itch
